Read-outs that look alike come from different tables or passages of the source.
Legend:
[1] = test system: HDF cells; assay: Summary of uses and toxic effects deduced from the cell assays (Table 1); assay type: cell-based, Human; details: for Anti-fibrotic (prevention of scar formation, also from acne) / Cytoprotective (antioxidant, anti-inflammatory and anti-ageing; useful also in the treatment of acne) / Cytotoxic / Irritant / Wound-healing: 24 hours
Method in brief: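 HDF cells exposed to test substances at a given dosage for 24 h; uses and toxicity inferred from free-radical scavenging, mitochondrial dehydrogenase activity, IL-1β/IL-6 production (basal or induced by 100 µM H2O2), proliferation under standard growth conditions, and senescence-like morphology.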

[2] = test system: interleukin 1β (IL-1β); assay: Inflammatory cytokines in cell supernatant (Mosaic ELISA microarray): IL-1β; assay type: cell-based, Human; details: for IL-1β ng/(ml* No. of cells from photo) ± SD: 24 hours; for IL-1β production (effect in words): 1-10 µM
[3] = test system: HDF cells; assay: Evaluation of cell proliferation (counting of Sirius Red stained cells in photographs); details: 24 hours
[4] = Anti-radical activity (decay of the DPPH radical); assay type: biochemical; details: for Anti-radical (skin protective): 24 hours
Method in brief: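 Test substance in ethanol mixed 1:1 with 200 µM DPPH (stock concentrations), in quadruplicate. Absorbance read at 530 nm after 30 min, with vitamin C and ethanol-only controls. IC50 from variable-slope Hill regression of dose-activity curves.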

[5] = test system: collagen produced by HDF cells; assay: Quantity of collagen produced by the cells (elution of Sirius Red)
[6] = test system: Human dermal fibroblasts (HDF); assay: Mitochondrial dehydrogenase activity (WST-1 formazan assay) in HDF cells; details: for Revitalizing agent: 24 hours; for activity at 1 µM / activity at 10 µM: Homo sapiens, Fibroblast, read-out: % mitochondrial dehydrogenase activity ± SD; for mitochondrial dehydrogenase activity (effect in words): fibroblasts
[7] = test system: interleukin 6 (IL-6); assay: Inflammatory cytokines in cell supernatant (Mosaic ELISA microarray): IL-6; assay type: cell-based, Human; details: for IL-6 ng/(ml* No. of cells from photo) ± SD: 24 hours; for IL-6 production (effect in words): 1-10 µM
[8] = Dose 1 µm (coptisine: 1 pm [sic])

## c1c2c(cc3c1OCO3)-c1cc3ccc4c(c3c[n+]1CC2)OCO4 [coptisine]
[1]; [8]
  Anti-fibrotic (prevention of scar formation, also from acne): No
  Cytoprotective (antioxidant, anti-inflammatory and anti-ageing; useful also in the treatment of acne): No
  Cytotoxic: No
  Irritant: Yes (↑IL-6, ↑IL-1β)
  Wound-healing: No
[1]; Dose 10 µm
  Anti-fibrotic (prevention of scar formation, also from acne): No
  Cytoprotective (antioxidant, anti-inflammatory and anti-ageing; useful also in the treatment of acne): No
  Cytotoxic: No
  Irritant: Yes (↑IL-6, ↑IL-1β)
  Wound-healing: No
[1]; exposure for 24 hours
  concentrations at which toxic (irritant) effects are shown: greater than or equal to 1 µM
[2]; 1 µM, 34 ng/ml TGF-β1
  IL-1β ng/(ml* No. of cells from photo) ± SD: 207±8 ng/(ml* No. of cells from photo)
[2]; 1 µM, 100 µM H2O2
  IL-1β ng/(ml* No. of cells from photo) ± SD: 174±20 ng/(ml* No. of cells from photo)
[2]; 1 µM, Standard conditions
  IL-1β ng/(ml* No. of cells from photo) ± SD: 137±12 ng/(ml* No. of cells from photo)
[2]; 10 µM, 34 ng/ml TGF-β1
  IL-1β ng/(ml* No. of cells from photo) ± SD: 267±15 ng/(ml* No. of cells from photo)
[2]; 10 µM, 100 µM H2O2
  IL-1β ng/(ml* No. of cells from photo) ± SD: 236±8 ng/(ml* No. of cells from photo)
[2]; 10 µM, Standard conditions
  IL-1β ng/(ml* No. of cells from photo) ± SD: 155±7 ng/(ml* No. of cells from photo)
[2]; 34 ng/ml TGF-β1
  IL-1β production (effect in words): tendency to increase IL-1β production in a dose-dependent manner
[2]; 100 µM H2O2
  IL-1β production (effect in words): tendency to increase IL-1β production in a dose-dependent manner
[2]; standard conditions
  IL-1β production (effect in words): tendency to increase IL-1β production in a dose-dependent manner
[3]; 1 µM, 34 ng/ml TGF-β1
  No. of cells from photo ± SD: 111±18
[3]; 1 µM, 100 µM H2O2
  No. of cells from photo ± SD: 143±17
[3]; 1 µM, Standard conditions
  No. of cells from photo ± SD: 144±12
[3]; 10 µM, 34 ng/ml TGF-β1
  No. of cells from photo ± SD: 86±6
[3]; 10 µM, 100 µM H2O2
  No. of cells from photo ± SD: 114±0
[3]; 10 µM, Standard conditions
  No. of cells from photo ± SD: 129±27
[4]; 1 mM, 30 minutes
  % DPPH activity: 114%
[4]; [8]
  Anti-radical (skin protective): No
[4]; Dose 10 µm
  Anti-radical (skin protective): No
[5]; 1-10 µM (1 µM and 10 µM), 34 ng/ml TGF-β1
  collagen production (effect in words): stimulates collagen production in a dose-dependent manner
[5]; 1-10 µM (1 µM and 10 µM), 100 µM H2O2
  collagen production (effect in words): stimulates collagen production in a dose-dependent manner
[5]; 1-10 µM, standard conditions
  collagen production (effect in words): stimulates collagen production in a dose-dependent manner
[6]
  concentrations below which no significant effects on mitochondrial dehydrogenase activity are shown: below 1 µM
[6]; [8]
  Revitalizing agent: No
[6]; Dose 10 µm
  Revitalizing agent: No
[6]; 24 h
  activity at 1 µM: 84.5 ± 3.17%
  activity at 10 µM: 62.3 ± 11.8%
[6]; 42 h
  activity at 1 µM: 90.1 ± 2.3%
  activity at 10 µM: 139 ± 5.34%
[6]; low dose for a prolonged period of time, to a lesser extent
  mitochondrial dehydrogenase activity (effect in words): stimulatory effects
[6]; overall
  mitochondrial dehydrogenase activity (effect in words): mostly inhibitory effects
[7]; 1 µM, 34 ng/ml TGF-β1
  IL-6 ng/(ml* No. of cells from photo) ± SD: 1027±36 ng/(ml* No. of cells from photo)
[7]; 1 µM, 100 µM H2O2
  IL-6 ng/(ml* No. of cells from photo) ± SD: 1034±27 ng/(ml* No. of cells from photo)
[7]; 1 µM, Standard conditions
  IL-6 ng/(ml* No. of cells from photo) ± SD: 612±31 ng/(ml* No. of cells from photo)
[7]; 10 µM, 34 ng/ml TGF-β1
  IL-6 ng/(ml* No. of cells from photo) ± SD: 1244±58 ng/(ml* No. of cells from photo)
[7]; 10 µM, 100 µM H2O2
  IL-6 ng/(ml* No. of cells from photo) ± SD: 1710±114 ng/(ml* No. of cells from photo)
[7]; 10 µM, Standard conditions
  IL-6 ng/(ml* No. of cells from photo) ± SD: 751±93 ng/(ml* No. of cells from photo)
[7]; 34 ng/ml TGF-β1
  IL-6 production (effect in words): tendency to increase IL-6 production in a dose-dependent manner
[7]; 100 µM H2O2
  IL-6 production (effect in words): tendency to increase IL-6 production in a dose-dependent manner
[7]; standard conditions
  IL-6 production (effect in words): tendency to increase IL-6 production in a dose-dependent manner

Source: EP2787958B1, “CHELIDONIUM MAJUS EXTRACTS AND THEIR USE IN THE TREATMENT OF SKIN DISORDERS AND PROMOTION OF SKIN REGENERATION” (priority 2011, dated 2013)
